The target of one experiment is T1, eIF2B-α (Homo sapiens, UniProt Q14232).
T1 construct: gene EIF2B1; purified recombinant alpha subunit, homodimer
T1 sequence (Q14232 1-305): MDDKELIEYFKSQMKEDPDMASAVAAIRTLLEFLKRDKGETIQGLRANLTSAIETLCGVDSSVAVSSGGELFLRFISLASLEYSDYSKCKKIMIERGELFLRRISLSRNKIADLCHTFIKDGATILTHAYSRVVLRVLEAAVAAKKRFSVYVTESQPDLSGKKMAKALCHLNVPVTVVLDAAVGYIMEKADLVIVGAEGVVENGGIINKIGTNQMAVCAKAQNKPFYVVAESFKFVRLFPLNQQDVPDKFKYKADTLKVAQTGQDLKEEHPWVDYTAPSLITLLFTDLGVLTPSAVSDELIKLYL
Put plainly: NanoDSF thermal unfolding. It is filed as binding. To be noted: stabilises; concentration not told in main text.

A further experiment addresses T2, eIF2B (Mus musculus, UniProt Q61749+Q99LD9).
T2 construct: gene Eif2b2; endogenous complex in MIN-6 cells or their lysate; decamer α2β2δ2(γε)2; alpha subunit strongly depleted in N208Y cells (mostly octamer β2δ2γ2ε2); with Translation initiation factor eIF2B subunit alpha; Translation initiation factor eIF2B subunit gamma; Translation initiation factor eIF2B subunit epsilon
Put plainly: 2BAct dose response in N208Y cells (read-out only in supplement). To be noted: activator, cell line not restated, read-out not told in main text. It is filed as cell-based.

T2 sequence (Q99LD9 whole entry): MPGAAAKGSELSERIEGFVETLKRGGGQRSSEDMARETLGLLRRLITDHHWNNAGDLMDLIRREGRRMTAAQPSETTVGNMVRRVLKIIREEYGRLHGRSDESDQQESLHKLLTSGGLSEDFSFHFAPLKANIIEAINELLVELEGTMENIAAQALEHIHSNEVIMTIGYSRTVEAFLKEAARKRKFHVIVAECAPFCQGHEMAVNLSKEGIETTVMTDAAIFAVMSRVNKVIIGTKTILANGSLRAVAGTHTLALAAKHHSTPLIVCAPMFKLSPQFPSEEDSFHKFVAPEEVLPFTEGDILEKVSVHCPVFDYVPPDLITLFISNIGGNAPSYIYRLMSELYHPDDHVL
T2 sequence (Q61749 2-524): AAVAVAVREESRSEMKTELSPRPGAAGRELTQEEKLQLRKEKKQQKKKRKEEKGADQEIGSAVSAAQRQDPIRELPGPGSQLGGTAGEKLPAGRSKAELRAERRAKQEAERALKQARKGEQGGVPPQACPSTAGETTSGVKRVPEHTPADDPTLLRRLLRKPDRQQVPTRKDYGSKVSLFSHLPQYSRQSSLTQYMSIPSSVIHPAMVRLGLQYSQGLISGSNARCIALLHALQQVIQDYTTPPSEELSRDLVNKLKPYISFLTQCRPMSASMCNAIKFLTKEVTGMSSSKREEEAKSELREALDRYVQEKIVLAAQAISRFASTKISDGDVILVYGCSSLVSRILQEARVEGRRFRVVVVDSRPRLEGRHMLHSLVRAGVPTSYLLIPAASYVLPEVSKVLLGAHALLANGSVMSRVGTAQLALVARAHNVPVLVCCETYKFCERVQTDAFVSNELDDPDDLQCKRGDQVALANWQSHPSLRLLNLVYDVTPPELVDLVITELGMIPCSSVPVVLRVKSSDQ
T2 sequence (Q99LC8 whole entry N208Y partner): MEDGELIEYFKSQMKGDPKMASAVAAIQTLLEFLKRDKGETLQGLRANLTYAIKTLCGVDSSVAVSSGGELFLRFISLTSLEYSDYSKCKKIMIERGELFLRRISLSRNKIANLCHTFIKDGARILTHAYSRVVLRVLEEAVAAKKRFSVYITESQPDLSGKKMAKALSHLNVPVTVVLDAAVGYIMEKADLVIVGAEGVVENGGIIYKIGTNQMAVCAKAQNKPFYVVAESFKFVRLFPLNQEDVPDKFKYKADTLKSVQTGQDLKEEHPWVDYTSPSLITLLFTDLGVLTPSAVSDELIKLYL
T2 sequence (Q8CHW4 whole entry partner): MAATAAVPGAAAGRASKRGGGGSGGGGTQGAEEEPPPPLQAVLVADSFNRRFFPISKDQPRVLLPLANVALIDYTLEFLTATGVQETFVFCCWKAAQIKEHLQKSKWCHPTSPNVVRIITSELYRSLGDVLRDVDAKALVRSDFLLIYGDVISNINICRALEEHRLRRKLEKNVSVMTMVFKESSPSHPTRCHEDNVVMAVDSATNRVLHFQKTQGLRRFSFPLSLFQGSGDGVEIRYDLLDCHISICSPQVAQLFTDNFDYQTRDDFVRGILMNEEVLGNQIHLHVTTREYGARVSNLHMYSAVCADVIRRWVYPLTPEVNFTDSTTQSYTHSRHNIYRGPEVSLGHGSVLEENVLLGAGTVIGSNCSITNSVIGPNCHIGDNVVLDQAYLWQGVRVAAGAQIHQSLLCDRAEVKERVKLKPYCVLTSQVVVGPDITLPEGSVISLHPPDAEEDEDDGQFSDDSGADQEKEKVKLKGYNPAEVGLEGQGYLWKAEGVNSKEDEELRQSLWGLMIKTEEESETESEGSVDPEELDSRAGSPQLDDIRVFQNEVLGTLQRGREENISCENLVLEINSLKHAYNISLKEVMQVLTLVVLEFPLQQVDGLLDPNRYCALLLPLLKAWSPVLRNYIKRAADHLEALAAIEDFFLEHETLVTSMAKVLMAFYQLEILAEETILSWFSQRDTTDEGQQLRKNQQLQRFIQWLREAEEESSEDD

As to `O=P(O)(O)OC[C@H]1OC(O)(CO)[C@@H](O)[C@@H]1O` (some centres unmarked) [fructose-6-phosphate], at eIF2B-α, the Tm result was “addition of F6P further increased the stability of WT eIF2B-α”.

Take `O=C(COc1ccc(Cl)c(F)c1)NC12CC(NC(=O)c3cnc(C(F)F)cn3)(C1)C2` [2BAct]: at eIF2B, the EC50 amounted to 27.8 nM.

These data come from publication PMC12406721, “Chronic integrated stress response causes dysregulated cholesterol synthesis in white matter disease” (JCI Insight, 2025).
